Entries after “also recorded” stand apart in the source; their conditions may differ.
Target: T1, Factor VIII (Homo sapiens, UniProt P00451)
T1 construct: large-scale purification of a full-length recombinant Factor VIII
Test: Factor VIII microplate assay
Format: binding
Procedure: On the basis of the results obtained from the initial collection, additional ligands were prepared and screened in relation to Factor VIII binding and elution behaviour. These studies have been performed either using a simple microtitre plate assay (resin volume 40 μL/well) to determine approximate Factor VIII binding affinity followed by more detailed studies using gravity-flow packed resin columns (0.5 mL resin volume). These packed column studies are more accurate and allow simple experiments to be conducted to determine absolute resin affinity by gradual saturation of the column (200 μL, […]) and following the protein concentration in the eluate after serial addition of each factor VIII aliquot applied to the column. In this way, the binding can be established and elution behaviour of each ligand in parallel.

T1 sequence (P00451 20-2351): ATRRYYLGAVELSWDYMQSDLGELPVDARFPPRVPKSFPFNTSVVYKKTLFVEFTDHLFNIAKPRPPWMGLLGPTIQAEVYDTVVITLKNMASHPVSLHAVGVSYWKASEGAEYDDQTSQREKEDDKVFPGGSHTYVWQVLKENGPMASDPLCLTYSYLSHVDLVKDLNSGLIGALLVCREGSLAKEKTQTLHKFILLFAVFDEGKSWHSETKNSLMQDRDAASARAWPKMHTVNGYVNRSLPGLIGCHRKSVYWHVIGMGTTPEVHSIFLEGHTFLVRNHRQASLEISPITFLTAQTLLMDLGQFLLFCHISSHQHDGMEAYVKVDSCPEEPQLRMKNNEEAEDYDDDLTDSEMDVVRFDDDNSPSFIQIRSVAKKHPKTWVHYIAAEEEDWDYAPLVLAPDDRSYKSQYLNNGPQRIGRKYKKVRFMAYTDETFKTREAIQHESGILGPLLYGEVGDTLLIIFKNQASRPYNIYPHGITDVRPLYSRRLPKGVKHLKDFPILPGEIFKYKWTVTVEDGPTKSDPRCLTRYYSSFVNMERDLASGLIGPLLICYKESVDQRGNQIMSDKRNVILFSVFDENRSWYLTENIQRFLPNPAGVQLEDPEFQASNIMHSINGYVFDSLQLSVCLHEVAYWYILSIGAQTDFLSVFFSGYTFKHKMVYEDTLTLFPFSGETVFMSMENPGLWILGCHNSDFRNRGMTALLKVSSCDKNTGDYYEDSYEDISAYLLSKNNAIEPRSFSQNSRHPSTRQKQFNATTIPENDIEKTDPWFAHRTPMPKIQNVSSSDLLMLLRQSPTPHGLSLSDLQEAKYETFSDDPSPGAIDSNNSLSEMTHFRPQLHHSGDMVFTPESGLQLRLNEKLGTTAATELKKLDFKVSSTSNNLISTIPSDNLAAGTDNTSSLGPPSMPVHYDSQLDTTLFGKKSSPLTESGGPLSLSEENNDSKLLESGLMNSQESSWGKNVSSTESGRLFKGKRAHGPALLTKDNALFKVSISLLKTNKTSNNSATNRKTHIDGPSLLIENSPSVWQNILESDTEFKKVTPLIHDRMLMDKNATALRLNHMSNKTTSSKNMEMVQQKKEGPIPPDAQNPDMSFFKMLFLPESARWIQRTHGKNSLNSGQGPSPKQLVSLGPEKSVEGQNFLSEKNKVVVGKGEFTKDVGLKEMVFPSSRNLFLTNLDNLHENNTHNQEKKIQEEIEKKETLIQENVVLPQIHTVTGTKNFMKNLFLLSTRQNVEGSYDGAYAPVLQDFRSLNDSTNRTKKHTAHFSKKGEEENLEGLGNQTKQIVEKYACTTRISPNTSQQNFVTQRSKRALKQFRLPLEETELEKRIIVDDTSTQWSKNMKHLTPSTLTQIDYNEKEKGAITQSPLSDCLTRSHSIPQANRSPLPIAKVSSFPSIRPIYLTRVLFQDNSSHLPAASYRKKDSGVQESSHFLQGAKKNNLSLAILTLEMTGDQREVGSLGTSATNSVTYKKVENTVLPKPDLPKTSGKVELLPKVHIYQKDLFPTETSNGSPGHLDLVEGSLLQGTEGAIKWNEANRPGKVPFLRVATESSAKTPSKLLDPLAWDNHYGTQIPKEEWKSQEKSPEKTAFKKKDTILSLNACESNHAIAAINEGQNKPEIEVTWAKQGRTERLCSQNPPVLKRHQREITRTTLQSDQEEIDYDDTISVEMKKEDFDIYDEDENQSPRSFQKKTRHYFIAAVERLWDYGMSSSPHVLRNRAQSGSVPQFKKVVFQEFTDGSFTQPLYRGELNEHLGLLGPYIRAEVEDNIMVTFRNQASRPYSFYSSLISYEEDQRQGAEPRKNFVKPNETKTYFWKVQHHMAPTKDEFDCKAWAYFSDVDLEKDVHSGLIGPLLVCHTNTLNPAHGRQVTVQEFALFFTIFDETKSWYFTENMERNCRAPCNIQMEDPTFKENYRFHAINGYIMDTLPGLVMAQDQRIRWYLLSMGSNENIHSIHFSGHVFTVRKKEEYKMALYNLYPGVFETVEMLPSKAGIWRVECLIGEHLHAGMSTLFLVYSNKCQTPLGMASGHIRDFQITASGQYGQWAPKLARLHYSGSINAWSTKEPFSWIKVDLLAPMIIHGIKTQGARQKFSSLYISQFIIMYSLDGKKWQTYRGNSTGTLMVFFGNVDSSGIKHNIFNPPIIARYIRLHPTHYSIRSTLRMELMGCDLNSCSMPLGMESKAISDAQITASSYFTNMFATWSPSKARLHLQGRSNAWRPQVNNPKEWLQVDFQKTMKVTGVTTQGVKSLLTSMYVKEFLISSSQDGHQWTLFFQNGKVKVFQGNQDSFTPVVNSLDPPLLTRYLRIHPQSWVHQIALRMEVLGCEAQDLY

## COC(=O)c1cccc(Nc2nc(C)nc(Nc3cccc4c(S(=O)(=O)OC)cccc34)n2)c1 [34/43]
  Factor VIII binding (in words): strongest Factor VIII binding and elution characteristics; also recorded: one of the highest Factor VIII binding potential
Initial collection U1-U4 and comparison ligand
  Factor VIII Bound: 106.3 µg/mL
